Source: ChEMBL document CHEMBL3882241, “Compounds inhibiting the binding of sap for treating osteoarthritis” (2006)
Activity calls are given as the source filed them. The rule behind the calls is not given here.

Assays:
[1] = target: Serum amyloid P-component (Homo sapiens) (UniProt P02743); assay: Inhibition of calcium dependent [125I]serum amyloid P-component (unknown origin) binding to immobilized chicken erythrocyte native long chromatin at 20 uM incubated for 2 hrs by gamma counting relative to control
Serum amyloid P-component (Homo sapiens), sequence (P02743 whole entry): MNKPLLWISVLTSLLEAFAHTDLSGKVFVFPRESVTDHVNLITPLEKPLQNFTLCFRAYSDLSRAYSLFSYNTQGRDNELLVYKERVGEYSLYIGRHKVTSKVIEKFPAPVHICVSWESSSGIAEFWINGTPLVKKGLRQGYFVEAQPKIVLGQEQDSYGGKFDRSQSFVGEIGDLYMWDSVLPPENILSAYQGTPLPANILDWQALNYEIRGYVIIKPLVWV

[2] = target: Serum amyloid P-component (Homo sapiens) (UniProt P02743); assay: Inhibition of calcium dependent [125I]serum amyloid P-component (unknown origin) binding to immobilized Neisseria meningitidis at 2 uM incubated for 2 hrs by fluorescence/electron microscopy relative to control
[3] = target: Serum amyloid P-component (Homo sapiens) (UniProt P02743); assay: Inhibition of calcium dependent [125I]serum amyloid P-component (unknown origin) binding to immobilized influenza virus A/Shanghai/24/90 at 2 uM incubated for 2 hrs by fluorescence/electron microscopy relative to control
[4] = target: Serum amyloid P-component (Homo sapiens) (UniProt P02743); assay: Inhibition of calcium dependent [125I]serum amyloid P-component (unknown origin) binding to immobilized influenza virus A/Shanghai/24/90 at 20 uM incubated for 2 hrs by fluorescence/electron microscopy relative to control
[5] = target: Serum amyloid P-component (Homo sapiens) (UniProt P02743); assay: Inhibition of calcium dependent [125I]serum amyloid P-component (unknown origin) binding to immobilized influenza virus A/Shanghai/24/90 at 200 uM incubated for 2 hrs by fluorescence/electron microscopy relative to control
[6] = target: Serum amyloid P-component (Homo sapiens) (UniProt P02743); assay: Inhibition of calcium dependent [125I]serum amyloid P-component (unknown origin) binding to immobilized Neisseria meningitidis at 200 nM incubated for 2 hrs by fluorescence/electron microscopy relative to control
[7] = target: Serum amyloid P-component (Homo sapiens) (UniProt P02743); assay: Inhibition of calcium dependent [125I]serum amyloid P-component (unknown origin) binding to immobilized chicken erythrocyte native long chromatin at 200 nM incubated for 2 hrs by gamma counting relative to control
[8] = target: Serum amyloid P-component (Homo sapiens) (UniProt P02743); assay: Inhibition of calcium dependent [125I]serum amyloid P-component (unknown origin) binding to immobilized Neisseria meningitidis at 2 mM incubated for 2 hrs by fluorescence/electron microscopy relative to control
[9] = target: Serum amyloid P-component (Homo sapiens) (UniProt P02743); assay: Inhibition of calcium dependent [125I]serum amyloid P-component (unknown origin) binding to immobilized Neisseria meningitidis at 20 uM incubated for 2 hrs by fluorescence/electron microscopy relative to control
[10] = target: Serum amyloid P-component (Homo sapiens) (UniProt P02743); assay: Inhibition of calcium dependent [125I]serum amyloid P-component (unknown origin) binding to immobilized chicken erythrocyte native long chromatin at 2 uM incubated for 2 hrs by gamma counting relative to control
[11] = target: Serum amyloid P-component (Homo sapiens) (UniProt P02743); assay: Inhibition of calcium dependent [125I]serum amyloid P-component (unknown origin) binding to immobilized chicken erythrocyte native long chromatin at 200 uM incubated for 2 hrs by gamma counting relative to control
[12] = target: Serum amyloid P-component (Homo sapiens) (UniProt P02743); assay: Inhibition of calcium dependent [125I]serum amyloid P-component (unknown origin) binding to immobilized Neisseria meningitidis at 200 uM incubated for 2 hrs by fluorescence/electron microscopy relative to control
[13] = target: Serum amyloid P-component (Homo sapiens) (UniProt P02743); assay: Inhibition of calcium dependent [125I]serum amyloid P-component (unknown origin) binding to immobilized influenza virus A/Shanghai/24/90 at 200 nM incubated for 2 hrs by fluorescence/electron microscopy relative to control
[14] = target: Serum amyloid P-component (Homo sapiens) (UniProt P02743); assay: Inhibition of calcium dependent [125I]serum amyloid P-component (unknown origin) binding to immobilized chicken erythrocyte native long chromatin at 2 mM incubated for 2 hrs by gamma counting relative to control
[15] = target: Serum amyloid P-component (Homo sapiens) (UniProt P02743); assay: Inhibition of calcium dependent [125I]serum amyloid P-component (unknown origin) binding to immobilized influenza virus A/Shanghai/24/90 at 2 mM incubated for 2 hrs by fluorescence/electron microscopy relative to control
[16] = target: Serum amyloid P-component (Homo sapiens) (UniProt P02743); assay: Inhibition of serum amyloid P-component (unknown origin) binding to immobilized amyloid beta 1 to 42 fibrils in presence of EDTA followed by re-exposure to SAP and calcium addition and re-exposure to compound at 50 umol/L by surface plasma resonance
[17] = target: Serum amyloid P-component (Homo sapiens) (UniProt P02743); assay: Inhibition of serum amyloid P-component (unknown origin) binding to immobilized amyloid beta 1 to 42 fibrils at 100 umol/L pre-incubated before calcium addition by surface plasma resonance
[18] = target: Serum amyloid P-component (Homo sapiens) (UniProt P02743); assay: Inhibition of serum amyloid P-component (unknown origin) binding to immobilized amyloid beta 1 to 42 fibrils at 500 umol/L in presence of calcium by surface plasma resonance
[19] = target: Serum amyloid P-component (Homo sapiens) (UniProt P02743); conditions: 10 mM
Description: Inhibition of calcium dependent [125I]serum amyloid P-component (unknown origin) binding to immobilized Neisseria meningitidis at 10 mM incubated for 2 hrs by fluorescence/electron microscopy relative to control

[20] = tested on: Homo sapiens; assay: Reduction of serum amyloid P-component in amyloidosis patient at 10 mg, sc bid for 3 months; format: functional
[21] = tested on: Homo sapiens; assay: Reduction of serum amyloid P-component in amyloidosis patient at 15 mg, sc bid for 2 months; format: functional

SMILES | inhibition [1] | inhibition [2] | inhibition [3] | inhibition [4] | inhibition [5] | inhibition [6] | inhibition [7] | inhibition [8] | inhibition [9] | inhibition [10] | inhibition [11] | inhibition [12] | inhibition [13] | inhibition [14] | inhibition [15] | further results
O=C(O)[C@H]1CCCN1C(=O)COc1ccccc1OCC(=O)N1CCC[C@@H]1C(=O)O | 77% | 77% | 68% | 88% | 93% | 18% | 7% | 100% | 87% | 34% | 89% | 100% | 44% | 96% | 94% | –
O=C(O)[C@H]1CCCN1C(=O)COc1cccc2c(OCC(=O)N3CCC[C@@H]3C(=O)O)cccc12 | 74% | 72% | 51% | 64% | 76% | 30% | 12% | 100% | 81% | 51% | 82% | 100% | 23% | 96% | 80% | –
C[C@H](CS)C(=O)N1CCC[C@@H]1C(=O)O | – | 42% | 30% | 40% | 51% | 3% | – | – | 50% | – | – | – | 12% | – | – | inhibition [16]: Active; inhibition [17]: Active; inhibition [18]: Active
O=C(O)[C@H]1CCCN1C(=O)COc1ccc(OCC(=O)N2CCC[C@@H]2C(=O)O)cc1 | 56% | 65% | 77% | 82% | 84% | 0% | 1% | 100% | 74% | 36% | 75% | 65% | 3% | 91% | 87% | –
O=C(O)[C@H]1CCCN1C(=O)Cc1ccc(CC(=O)N2CCC[C@@H]2C(=O)O)c2ccccc12 | 77% | 69% | 64% | 95% | 94% | 13% | 15% | 100% | 89% | 35% | 96% | 100% | 4% | 100% | 98% | –
O=C(O)CN(CCN(CC(=O)O)CC(=O)O)CC(=O)O | – | – | – | – | – | – | – | – | – | – | – | – | – | – | – | inhibition [19]: 100%
O=C(O)[C@H]1CCCN1C(=O)[C@H]1CC[C@@H](C(=O)N2CCC[C@@H]2C(=O)O)CC1 | 67% | 73% | 76% | 83% | 89% | 31% | 1% | 100% | 93% | 35% | 94% | 100% | 0% | 100% | 92% | –
NCCOP(=O)(O)O | 36% | 18% | 8% | 42% | 51% | 7% | 3% | 95% | 32% | 9% | 59% | 41% | 1% | 94% | 69% | –
O=C(O)[C@H]1CCCN1C(=O)CCCCC(=O)N1CCC[C@@H]1C(=O)O | 69% | 61% | 81% | 90% | 96% | 5% | 1% | 100% | 74% | 29% | 87% | 79% | 36% | 93% | 98% | inhibition (INH) [20]: 95%; inhibition (INH) [21]: 95%
O=C(O)[C@H]1CCCN1C(=O)Cc1ccc(CC(=O)N2CCC[C@@H]2C(=O)O)cc1 | 39% | 64% | 65% | 85% | 89% | 7% | 4% | 100% | 73% | 19% | 66% | 100% | 37% | 92% | 89% | –
COc1cccc(OCC(=O)N2CCC[C@@H]2C(=O)O)c1OCC(=O)N1CCC[C@@H]1C(=O)O | 75% | 74% | 52% | 62% | 77% | 19% | 11% | 100% | 92% | – | 96% | 93% | 16% | 100% | 89% | –
C[N+](C)(C)CCOP(=O)([O-])O | 0% | 5% | 2% | 5% | 5% | 0% | 2% | 24% | 4% | 0% | 3% | 3% | 0% | 19% | 3% | –
O=C(O)[C@H]1CCCN1C(=O)Cc1cccc(CC(=O)N2CCC[C@@H]2C(=O)O)c1 | 56% | 64% | 68% | 73% | 77% | 28% | 0% | 100% | 92% | 18% | 94% | 100% | 25% | 98% | 82% | –
O=C(O)[C@H]1CCCN1C(=O)Cc1cc(O)c(CC(=O)N2CCC[C@@H]2C(=O)O)cc1O | 78% | 76% | 57% | 80% | 89% | 1% | 0% | 100% | 95% | 45% | 88% | 100% | 24% | 97% | 89% | –
Cc1c(OCC(=O)N2CCC[C@@H]2C(=O)O)cccc1OCC(=O)N1CCC[C@@H]1C(=O)O | 65% | 64% | 65% | 81% | 81% | 1% | 0% | 100% | 93% | 22% | 95% | 100% | 24% | 98% | 85% | –
